Measurements as given in ChEMBL document CHEMBL3507680, “University of Dundee, Gates Library screen for HepG2 cell viability”.

Test: Human HepG2 cell viability assay in 384 well format
Format: toxicity, cell-based
Design: dose 125 nL, time 70.5 hour; cytotoxicity at 70.5 h: concentration not given beside the values
Settings: HepG2 cells, read-out: Inhibition

Structure (SMILES): Cc1nc(NCc2noc(C3CCCO3)n2)c2ccsc2n1 (centres undefined)
- cytotoxicity at 70.5 h: 26.9%

Structure (SMILES): CC(=O)Nc1nc(CN2CCCCC2Cn2cncn2)cs1 (centres undefined)
- cytotoxicity at 70.5 h: 0.302%

Structure (SMILES): Cn1nc(CN2CCCC2)c2c1CN(C(=O)c1ccncc1F)CC2
- cytotoxicity at 70.5 h: -3.12%

Structure (SMILES): CNc1ncccc1CN1CCN(C)CC(C(=O)N(C)C)C1 (centres undefined)
- cytotoxicity at 70.5 h: 14.6%

Structure (SMILES): Cn1nc(C(=O)N2CCSCC2)cc1NC(=O)c1ccco1
- cytotoxicity at 70.5 h: -5.7%

Structure (SMILES): COc1ncccc1CN1CCn2c(Cn3cncn3)cnc2C1
- cytotoxicity at 70.5 h: 20.3%

Structure (SMILES): Cc1c[nH]nc1C1CCN(C(=O)C2CCCC2)C1 (centres undefined)
- cytotoxicity at 70.5 h: -5.07%

Structure (SMILES): N#Cc1ccccc1CN(CC(N)=O)C1CCCC1
- cytotoxicity at 70.5 h: -7.95%

Structure (SMILES): CN(C)c1nccc(N(C)C2CCOCC2)n1
- cytotoxicity at 70.5 h: -2.99%

Structure (SMILES): CCOCCCNC(=O)c1cn(CC)nc1C
- cytotoxicity at 70.5 h: -8.03%

Structure (SMILES): O=C(c1cccnc1)N1CCn2cc(CN3CCCC3)nc2C1
- cytotoxicity at 70.5 h: -6.71%

Structure (SMILES): COc1cc(N[C@@H](Cc2ccccc2)C(N)=O)ncn1
- cytotoxicity at 70.5 h: -5.19%

Structure (SMILES): CN(C)c1cc(C(=O)N2CCCCC2)ccn1
- cytotoxicity at 70.5 h: 0.476%

Structure (SMILES): CCn1ccnc1CN1CCN(CC(O)c2cccc(F)c2)CC1 (centres undefined)
- cytotoxicity at 70.5 h: -5.97%

Structure (SMILES): O=C(O)CSC1CCc2ccccc2NC1=O (centres undefined)
- cytotoxicity at 70.5 h: -14.7%

Structure (SMILES): CCOC(=O)c1ccc(CNC(=O)c2ccon2)o1
- cytotoxicity at 70.5 h: 14.2%

Structure (SMILES): CCc1cc(CNC(=O)N2Cc3ccccc3N(C)CC2C)[nH]n1 (centres undefined)
- cytotoxicity at 70.5 h: -0.192%

Structure (SMILES): Cn1cnc2cc(C(=O)N3CCN(CCO)[C@@H]4CS(=O)(=O)C[C@@H]43)ccc21
- cytotoxicity at 70.5 h: -0.937%

Structure (SMILES): Cn1cc(C(=O)N2CC[C@H](N3CCOCC3)[C@H](CCCO)C2)cn1
- cytotoxicity at 70.5 h: -12.1%

Structure (SMILES): c1cnc2nc(N3CCc4c(ncn4C4CC4)C3)ccc2n1
- cytotoxicity at 70.5 h: -6.09%

Structure (SMILES): CCN1CCC2(CCC1=O)CN(C1CCOCC1)CCN2C (centres undefined)
- cytotoxicity at 70.5 h: -6.68%

Structure (SMILES): Cc1ccc(C)n1-c1c(C(=O)NCC(C)N(C)C)cnn1C (centres undefined)
- cytotoxicity at 70.5 h: -0.908%

Structure (SMILES): COCCN1CCCCC12CC(=O)N(c1cccc(C#N)c1)C2 (centres undefined)
- cytotoxicity at 70.5 h: -4.04%

Structure (SMILES): CC(=O)N1CCC(Cc2cnc(-n3ccnc3)cn2)CC1
- cytotoxicity at 70.5 h: -6.47%

Structure (SMILES): CC(C)CSCCN1CCCN(S(C)(=O)=O)CC1
- cytotoxicity at 70.5 h: 9.07%

Structure (SMILES): CCC(CNC(=O)c1ccccn1)N1CCc2ccccc2C1 (centres undefined)
- cytotoxicity at 70.5 h: 10.5%

Structure (SMILES): Cc1ccc(CNC(c2ccccc2)c2nccn2C)cc1 (centres undefined)
- cytotoxicity at 70.5 h: 22.4%

Structure (SMILES): Fc1cnc(N2CCO[C@H]3[C@H](OCCN4CCCC4)CC[C@@H]32)nc1
- cytotoxicity at 70.5 h: -8.48%

Structure (SMILES): COCCCN1CCC(CNc2nccc(-c3cnn(C)c3)n2)C1 (centres undefined)
- cytotoxicity at 70.5 h: -6.55%

Structure (SMILES): CC(C)(C)c1nc(CN(CCC2CCCCC2)CC(N)=O)no1
- cytotoxicity at 70.5 h: 22.6%

Structure (SMILES): O=C(NCCn1cccn1)Nc1cc(C(=O)N2CCOCC2)ccc1Cl
- cytotoxicity at 70.5 h: -7.57%

Structure (SMILES): C[C@@H]1C[C@@H]2CCN(Cc3nccs3)C[C@H]2O1
- cytotoxicity at 70.5 h: -9.1%

Structure (SMILES): CC(NC(=O)CN1C=Nc2ccccc2S1(=O)=O)c1ccccc1 (centres undefined)
- cytotoxicity at 70.5 h: -9.29%

Structure (SMILES): Cc1cc(N2CCN(C(=O)c3cc(Cl)c[nH]3)CC2)nc(C)n1
- cytotoxicity at 70.5 h: -4.7%

Structure (SMILES): CC(C)c1cnc(CN2C(=O)CC3(CCSC3)C2=O)o1 (centres undefined)
- cytotoxicity at 70.5 h: -3.08%

Structure (SMILES): COc1cc(N2CC[C@H]3OCC[C@@]3(COc3nccc(C)n3)C2)ncn1
- cytotoxicity at 70.5 h: -17.3%

Structure (SMILES): O=C(CN1CCc2ccccc21)NCc1ccc(Cl)cc1
- cytotoxicity at 70.5 h: 3.34%

Structure (SMILES): COC(C)(C)C(=O)N1Cc2cnc(C(C)(C)C)nc2C1
- cytotoxicity at 70.5 h: -13.3%

Structure (SMILES): COCCNC(=O)Cn1cc(OCc2ccc(F)cc2)c(=O)cc1C
- cytotoxicity at 70.5 h: 9.56%

Structure (SMILES): COC(=O)c1c(Cl)c(C2CC2)nc2onc(C)c12
- cytotoxicity at 70.5 h: 2.98%

Structure (SMILES): O=C1CC(NCc2ncc[nH]2)CN1CCc1cccc(Cl)c1 (centres undefined)
- cytotoxicity at 70.5 h: -8.16%

Structure (SMILES): Cc1c(C(=O)NCCN2C(=O)CCC2=O)sc2ccc(F)cc12
- cytotoxicity at 70.5 h: 2.84%

Structure (SMILES): CCc1nccn1-c1cncc(C2CCN(C(=O)COC)CC2)n1
- cytotoxicity at 70.5 h: -6.24%

Structure (SMILES): CN1CCC2(COCc3cnc(N4CCOCC4)nc32)C1 (centres undefined)
- cytotoxicity at 70.5 h: -16.8%

Structure (SMILES): Cc1nc(C)n(CC2CCCN2Cc2cn3ccccc3n2)n1 (centres undefined)
- cytotoxicity at 70.5 h: -14.7%

Structure (SMILES): CSc1ccc(C(=O)N2C[C@H]3CC[C@@H]2CN(Cc2cccnc2)C3)cc1
- cytotoxicity at 70.5 h: -5.35%

Structure (SMILES): NC(=O)C1=NC2=NS(=O)(=O)c3ccccc3N2N1Cc1ccc(Br)cc1
- cytotoxicity at 70.5 h: -7.39%

Structure (SMILES): CCOc1ncnc2c1CCN(Cc1csc(C)n1)CC2
- cytotoxicity at 70.5 h: 18.8%

Structure (SMILES): COc1ccc(C(=O)N2CCN(C(=O)CCCc3cn[nH]c3)CC2)cc1
- cytotoxicity at 70.5 h: -5.64%

Structure (SMILES): Cc1c(I)cccc1C(=O)NCc1ncc[nH]1
- cytotoxicity at 70.5 h: -0.0896%

Structure (SMILES): Cc1nc(NCc2nccn2C)cc(C2COCCN2)n1 (centres undefined)
- cytotoxicity at 70.5 h: -11.1%

Structure (SMILES): CC1CN(C(=O)c2ccc(=O)n(C)c2)c2ccccc2NC1=O (centres undefined)
- cytotoxicity at 70.5 h: -0.859%

Structure (SMILES): Cc1n[nH]c(C)c1-c1cnc(C2CCN(S(C)(=O)=O)CC2)cn1
- cytotoxicity at 70.5 h: -6.98%

Structure (SMILES): COc1ccnc(N(C)Cc2ccccc2O)n1
- cytotoxicity at 70.5 h: 1.42%

Structure (SMILES): COc1ccccc1CNC(=O)C(C)N1CC(n2cc(C)cn2)C1 (centres undefined)
- cytotoxicity at 70.5 h: -10.8%

Structure (SMILES): CCS(=O)(=O)N1CCC2(CC1)COC(COc1cccnc1)C2 (centres undefined)
- cytotoxicity at 70.5 h: -10.2%

Structure (SMILES): CN(CC(O)C1CC1)C(=O)c1ccc(-c2nc(C3CC3)no2)cc1 (centres undefined)
- cytotoxicity at 70.5 h: 2.53%

Structure (SMILES): CCC(CC)Cn1ncc(N2CCOCC2)cc1=O
- cytotoxicity at 70.5 h: -1.42%

Structure (SMILES): Nc1cccnc1N1CCC(C(F)(F)F)CC1
- cytotoxicity at 70.5 h: 14.9%

Structure (SMILES): CN(C)CCC1CN(C(=O)c2cccc3c2OCC3)CCO1 (centres undefined)
- cytotoxicity at 70.5 h: 30%

Structure (SMILES): CS(=O)(=O)N1CCCC(n2nnn(-c3ccccc3)c2=O)C1 (centres undefined)
- cytotoxicity at 70.5 h: -8.01%

Structure (SMILES): COc1ccccc1C(=O)N1Cc2cc(C)ccc2OCC1CN(C)C (centres undefined)
- cytotoxicity at 70.5 h: -8.39%

Structure (SMILES): Cc1ccc2oc(C(=O)N3CCCC(n4nc(C)nc4C)C3)cc2n1 (centres undefined)
- cytotoxicity at 70.5 h: -9.11%

Structure (SMILES): Cc1nc(NCc2nonc2C)cc(C(C)Cn2nc(C)c(C)c2C)n1 (centres undefined)
- cytotoxicity at 70.5 h: -7.72%

Structure (SMILES): OCC(O)CN(CCN1CCOCC1)Cc1ccco1 (centres undefined)
- cytotoxicity at 70.5 h: -8.67%

Structure (SMILES): CCn1cnc(NC(=O)N2CCCC(c3ccccc3)CC2)n1 (centres undefined)
- cytotoxicity at 70.5 h: -6.51%

Structure (SMILES): Cc1ncsc1-c1nc(Cc2cccs2)nn1C1CCN(C)CC1
- cytotoxicity at 70.5 h: -4.07%

Structure (SMILES): Cc1ccc(-c2nc(CC(=O)NCC3CCCOC3)cs2)o1 (centres undefined)
- cytotoxicity at 70.5 h: -0.602%

Structure (SMILES): O=C(c1ccc[nH]1)N1CCCC2(CCN(c3ccsc3)C2=O)C1 (centres undefined)
- cytotoxicity at 70.5 h: -11.6%

Structure (SMILES): c1cnc2c(CN3CCCCC3c3ccncn3)cnn2c1 (centres undefined)
- cytotoxicity at 70.5 h: -8.22%

Structure (SMILES): CCCc1ccc(CN2C[C@H]3C(=O)N(CC4CC4)C[C@@]3(C(=O)O)C2)o1
- cytotoxicity at 70.5 h: -6.58%

Structure (SMILES): C[C@H](NC(=O)c1cccc(CCC(C)(C)O)c1)C(N)=O
- cytotoxicity at 70.5 h: -0.496%

Structure (SMILES): Cc1csc(CNC(=O)N2CCCC(c3nncn3C)C2)n1 (centres undefined)
- cytotoxicity at 70.5 h: -4.57%

Structure (SMILES): CN1C[C@@H]2CN(C(=O)NCc3cccc(F)c3)CCC[C@]2(C(=O)O)C1
- cytotoxicity at 70.5 h: 8.66%

Structure (SMILES): CN1C(=O)CCCC12CCCN(C(=O)c1ccoc1)C2 (centres undefined)
- cytotoxicity at 70.5 h: -10.6%

Structure (SMILES): Cc1ccccc1-n1ncc(C(C)N)c1C (centres undefined)
- cytotoxicity at 70.5 h: 26.7%

Structure (SMILES): c1csc(CNCC2COCc3c(-c4ccoc4)nnn3C2)n1 (centres undefined)
- cytotoxicity at 70.5 h: -8.83%

Structure (SMILES): COc1ccc(OC)c(C(C)Nc2ncnc3c2NC(=O)CN3)c1 (centres undefined)
- cytotoxicity at 70.5 h: -18.2%

Structure (SMILES): Cc1cc(C)nc(CCNc2nccc(CCC(F)(F)F)n2)n1
- cytotoxicity at 70.5 h: 8.35%

Structure (SMILES): N#Cc1c(Cl)nsc1NCCCN1C(=O)COc2ccccc21
- cytotoxicity at 70.5 h: 8.75%

Structure (SMILES): COc1ccc(CC(=O)N2CCC[C@@H](N)[C@@H]2c2ccccc2F)cc1
- cytotoxicity at 70.5 h: -0.222%

Structure (SMILES): CC(C)(C)n1cc(C(=O)N2CCN(Cc3ccccc3F)CC2)cn1
- cytotoxicity at 70.5 h: 5.09%

Structure (SMILES): CCNC(=O)c1cc(OC)c(OC)cc1N(C)S(C)(=O)=O
- cytotoxicity at 70.5 h: -8.66%

Structure (SMILES): COc1ccccc1-c1nnc2n1NC(N)=C(C#N)S2
- cytotoxicity at 70.5 h: -28.8%
